2 molecules from US20230132823A1, “BI-FUNCTIONAL COMPOUNDS AND METHODS FOR TARGETED UBIQUITINATION OF ANDROGEN RECEPTOR” (MONTELINO THERAPEUTICS, INC., priority 2020, published 2023) can be followed below.

Like-named read-outs stand apart in the source and are kept apart here. Where a SMILES comes first, the peptide text is derived from it. [ ]: non-standard residue; d: D form. The star is where a group is joined. ξ: configuration not given here. X1 = O=C(COc1c(-c2csc(N3CCOCC3)n2)ccc(F)c1F)NCCCCCCN*; Dip = N[C@H](C(=O)O)C(c1ccccc1)c1ccccc1; Chg = N[C@H](C(=O)O)C1CCCCC1; NMeA = CN[C@@H](C)C(=O)O; ξP = O=C(O)C1CCCN1

One data set deals with 22Rv1-Enz^R cells. The data set can be described thus: 22Rv1-Enz^R cell proliferation (cell count, Experimental Example 3). The class given is cell-based, human. The protocol: The human prostate cancer cell line, 22Rv1 has been reported to express a high level of AR-V7. Thus, 22Rv1 was seeded at 50,000 cells/well on a 24-well plate in quadruplicates and treated with test compound in concentrations ranging up to 20 μM for four days. Standard culture media was RPMI-1640 supplemented with 10% fetal bovine serum. The test compound initially was dissolved in DMSO at 50 mM. This stock solution was then diluted as needed for the indicated concentrations. At the end of the four-day period, cells were harvested using 1% trypsin and counted using an automated cell counter.
(§1) Cell Culture. Human CaP cell lines, LNCaP, 22Rv1, VCaP, PC3, and DU145 are obtained from the American Type Culture Collection (ATCC) and maintained in the standard culture media: RPMI-1640 supplemented with 10% fetal bovine serum (FBS). LNCaP, 22Rv1, and VCaP are androgen-responsive cell lines, while PC3 and DU145 are not. To establish SAT resistant CaP cell lines, LNCaP, 22Rv1, and VCaP are treated continuously with 10-50 μM abiraterone, apalutamide, darolutamide, or enzalutamide. After 3-6 months, stable cell lines are established and designated as LNCaP-Abi^R, LNCaP-Apa^R, LNCaP-Daro^R, LNCaP-Enz^R, VCaP-Abi^R, VCaP-Apa^R, VCaP-Daro^R, VCaP-Enz^R, 22Rv1-Abi^R, 22Rv1-Apa^R, 22Rv1-Daro^R and 22Rv1-Enz^R. Unless otherwise specified, the standard culture media for these SAT-resistant cell lines included 10 μM of their respective SAT. For the proteasome inhibitor study, the inhibitors MG132 and Epoxomicin are used. The E3 ligase inhibitors Heclin, Nutlin 3a, Thalidomide, and VH298 are used. Cell lines obtained from ATCC are confirmed by checking their morphology using optical microscopy, establishing baselines for cell proliferation, verifying species of origin using isoenzymology, and characterizing the cell's DNA fingerprint using short tandem repeat (STR) profiling. Mycoplasma contamination is also assessed using a PCR based detection system.

Data set [1] can be described thus: Body weight of tumor-bearing mice during treatment. It is filed as in vivo. How it is done: The in vivo effects of the Compound of Example 16 are assessed in mice using enzalutamide-resistant CaP xenografts. First, 22Rv1-Enz^R tumor xenografts are established in nu/nu mice. Upon CaP xenograft formation (average diameter of 3 mm), mice are randomized into controls or treatment. Control mice are treated with 100 μl vehicle containing 10 mg/ml enzalutamide (n=5). The treatment group is injected with 100 μl vehicle containing 2.5 mg/ml Compound of Example 16 and 10 mg/ml enzalutamide daily directly into tumors (n=5) and tumor volumes were followed. […] Tumors are harvested and analyzed at the end of the study period.
Enzalutamide-resistant CaP tumor xenografts are established in twelve mice and three each are assigned to the following four groups: control IP (vehicle), control oral (vehicle), 8.3 mg/kg IP, and 8.3 mg/kg oral. Because these cells are resistant to enzalutamide, all animals are administered enzalutamide.

Another data set deals with T1, AR-FL (Homo sapiens, UniProt P10275, DUP590-628/H875Y).
T1 sequence (P10275 with tags, fused parts or gaps DUP590-628/H875Y): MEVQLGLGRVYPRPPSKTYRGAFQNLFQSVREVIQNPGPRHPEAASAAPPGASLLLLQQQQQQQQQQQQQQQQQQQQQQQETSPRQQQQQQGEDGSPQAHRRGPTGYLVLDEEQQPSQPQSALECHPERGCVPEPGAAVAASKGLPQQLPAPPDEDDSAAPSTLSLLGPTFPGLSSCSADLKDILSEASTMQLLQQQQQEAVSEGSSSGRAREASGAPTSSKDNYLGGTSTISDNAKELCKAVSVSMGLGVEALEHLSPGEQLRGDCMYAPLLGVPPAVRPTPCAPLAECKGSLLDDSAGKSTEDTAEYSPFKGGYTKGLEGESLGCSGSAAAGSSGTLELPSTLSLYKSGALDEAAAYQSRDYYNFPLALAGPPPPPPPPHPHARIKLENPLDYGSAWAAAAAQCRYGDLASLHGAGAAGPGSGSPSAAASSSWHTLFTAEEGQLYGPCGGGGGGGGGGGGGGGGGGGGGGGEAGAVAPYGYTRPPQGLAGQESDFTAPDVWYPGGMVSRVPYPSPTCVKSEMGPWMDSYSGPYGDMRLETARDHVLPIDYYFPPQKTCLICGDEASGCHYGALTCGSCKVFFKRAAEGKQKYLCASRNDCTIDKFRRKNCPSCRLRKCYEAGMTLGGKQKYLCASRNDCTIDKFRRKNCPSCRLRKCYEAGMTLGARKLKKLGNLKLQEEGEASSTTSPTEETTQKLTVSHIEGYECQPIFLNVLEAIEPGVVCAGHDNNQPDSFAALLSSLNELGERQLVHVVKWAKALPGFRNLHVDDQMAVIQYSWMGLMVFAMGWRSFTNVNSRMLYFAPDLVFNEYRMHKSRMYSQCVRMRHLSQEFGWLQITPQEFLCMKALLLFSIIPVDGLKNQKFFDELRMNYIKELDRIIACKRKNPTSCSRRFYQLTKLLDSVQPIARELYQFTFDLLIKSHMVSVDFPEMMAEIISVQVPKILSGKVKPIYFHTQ
The data set can be described thus: Immunoblot analysis of AR-FL protein in CaP cells (Experimental Example 3). Details: decreased AR-V7 and AR-FL protein expression levels in 22Rv1 cells; endogenous in cells; host or cells: 22Rv1 (also VCaP, LNCaP and SAT-resistant sublines). It is filed as cell-based. The protocol:
as §1
Immunoblot Analysis. CaP cells are collected and lysed with the lysis buffer (20 mM Tris-HCl (pH 7.5), 150 mM NaCl, 1 mM Na2EDTA, 1 mM EGTA, 1% Triton, 2.5 mM sodium pyrophosphate, 1 mM beta-glycerophosphate, 1 mM Na3VO4, and 1 μg/ml leupeptin) containing 1 mM phenylmethylsulfonyl fluoride (PMSF). Cell lysates are then centrifuged and protein in the supernatant is quantified. After separating 25-50 μg of protein using SDS-PAGE, samples are incubated with AR-V7, GR, PR, ERα, AR-FL, ubiquitin, or β-actin antibodies. For AR-V7, AR-FL, PR, GR, and ERα immunoblots, primary antibody is diluted 1:1000 in 5% skim milk. For the β-actin immunoblot, 1:10000 diluted primary antibody is used. All membranes are incubated overnight at 4° C. Following the incubation with appropriate secondary antibody, immunoblots are analyzed using SuperSignal West Femto Maximum Sensitivity Substrate (ThermoFisher).
A general note: Immunoblotting shows a protein as a band on a membrane.

For the molecule `CN[C@@H](C)C(=O)N[C@H](C(=O)N1CCCC1C(=O)N[C@H](C(=O)NCCCCCCNC(=O)COc1c(-c2csc(N3CCOCC3)n2)ccc(F)c1F)C(c1ccccc1)c1ccccc1)C1CCCCC1` (stereo partly drawn) [Example 26, (S)-1-((S)-2-cyclohexyl-2-((S)-2-(methylamino)propanamido)acctyl)-N-((S)-1-((6-(2-(2,3-difluoro-6-(2-morpholinothiazol-4-yl)phenoxy)acetamido)hexyl)amino)-1-oxo-3,3-diphenylpropan-2-yl)pyrrolidine-2-carboxamide] (H-[NMeA][Chg][ξP][Dip]-X1), the “reduction of 22Rv1-Enz^R cell counts after pretreatment with MG-132” value in the data set with 22Rv1-Enz^R cells (10 μM, 4 days, MG-132 (5 μM) pretreatment) was “substantially blocked”. The “changes in animal body mass” value in data set [1] (22Rv1-Enz^R tumors, 8.3 mg/kg and 0.83 mg/kg, 7 weeks) is listed as “No significant changes”. In addition, the DC50 on AR-FL (24 hours, immunoblot, read-out: DC50, concentration at which 50% of AR-FL is degraded in 24 hours) is < 0.5 µM.

Turning to `Cc1ncsc1-c1ccc([C@H](C)NC(=O)[C@@H]2C[C@@H](O)CN2C(=O)[C@@H](NC(=O)CCCCNC(=O)COc2c(-c3csc(N4CCOCC4)n3)ccc(F)c2F)C(C)(C)C)cc1` [Example 16, (2S,4R)-1-((S)-2-(5-(2-(2,3-difluoro-6-(2-morpholinothiazol-4-yl)phenoxy)acetamido)pentanamido)-3,3-dimethylbutanoyl)-4-hydroxy-N-((S)-1-(4-(4-methylthiazol-5-yl)phenyl)ethyl)pyrrolidine-2-carboxamide], in the data set with 22Rv1-Enz^R cells (1 μM, 6 days), the “22Rv1-EnzR cell count, % of control” value was “about 45 % of control”. In data set [1] (8.3 mg/kg systemic dosing, four weeks), the “change in weight following treatment” value is on record as “no significant change in weight”. The “weight of the mice during treatment” value in data set [1] (intratumoral, 22Rv1-Enz^R xenograft, 5 weeks) is on record as “did not significantly change”. Moreover, on AR-FL (22Rv1, 24 hours, immunoblot, read-out: DC50, concentration at which 50% of AR-FL degraded in 24 hours), the DC50 is 2 µM. For the same molecule, at AR-FL (22Rv1 cells, 24 hours, 0, 0.01, 0.1, 1 and 10 μM tested), the “concentration from which AR-FL protein expression is decreased (immunoblot)” value was 1 µM. Besides, the “AR-FL protein expression level in parental and SAT-resistant 22Rv1, VCaP and LNCaP cells” value on AR-FL (immunoblot) is recorded as “decreases the protein expression levels”.
